In ChEMBL document CHEMBL3853339, “Bioactive phenols as potential neuroinflammation inhibitors from the leaves of Xanthoceras sorbifolia Bunge” (Bioorg Med Chem Lett, 2016):

Legend:
[1] = Antineuroinflammatory activity in […] cells assessed as inhibition of LPS-induced NO production after 24 hrs in presence of LPS by Griess reaction; assay type: functional, cell-based; conditions: BV-2, 24 h
[2] = Cytotoxicity against LPS-activated human BV2 cells assessed as cell viability at 1 uM after 24 hrs by MTT assay (reference value: 98.03 to 98.84%); assay type: toxicity, cell-based, Mus musculus, BV-2; conditions: read-out: Activity
[3] = Cytotoxicity against LPS-activated […] cells assessed as cell viability at 10 uM after 24 hrs by MTT assay (reference value: 98.03 to 98.84%); assay type: toxicity, cell-based, Mus musculus, BV-2; conditions: read-out: Activity
[4] = Cytotoxicity against LPS-activated […] cells assessed as cell viability at 30 uM after 24 hrs by MTT assay (reference value: 98.03 to 98.84%); assay type: toxicity, cell-based, Mus musculus, BV-2; conditions: read-out: Activity
[5] = Cytotoxicity against LPS-activated human BV2 cells assessed as cell viability at 100 uM after 24 hrs by MTT assay (reference value: 98.03 to 98.84%); assay type: toxicity, cell-based, Mus musculus, BV-2; conditions: read-out: Activity

| IC50 [1] [µM] | Compound | viability at 24 h, 1 µM [2] [%] | viability at 24 h, 10 µM [3] [%] | viability at 24 h, 30 µM [4] [%] | viability at 24 h, 100 µM [5] [%] |
| --- | --- | --- | --- | --- | --- |
| 3.08 | COc1cc([C@H]2OC[C@H]3[C@@H]2CO[C@@H]3c2cc(OC)c(O[C@@H]3O[C@H](CO)[C@@H](O)[C@H](O)[C@H]3O)c(OC)c2)cc(OC)c1O | 92.9 | 87.4 | 95.4 | 94.4 |
| > 100 | COc1cc(CO)cc(OC)c1O[C@@H]1O[C@H](CO)[C@@H](O)[C@H](O)[C@H]1O | 91.1 | 94.7 | 90.7 | 87 |
| > 100 | O=C(O)/C=C\c1ccc(O[C@@H]2O[C@H](CO)[C@@H](O)[C@H](O)[C@H]2O)cc1 | 90.9 | 95.4 | 93 | 90 |
| > 100 | COc1cc([C@@H]2OC[C@H]3[C@@H]2CO[C@@H]3c2cc(OC)c(O[C@@H]3O[C@H](CO)[C@@H](O)[C@H](O)[C@H]3O)c(OC)c2)cc(OC)c1O | 92.4 | 91.6 | 102 | 100 |
| > 100 | COc1cc(/C=C/C(=O)O)cc(OC)c1O[C@@H]1O[C@H](CO)[C@@H](O)[C@H](O)[C@H]1O | 94.5 | 96.3 | 93.1 | 95.6 |
| 74.7 | C[C@@H]1O[C@@H](OC[C@H]2O[C@@H](Oc3c(-c4cc(O)c(O)c(O)c4)oc4cc(O)cc(O)c4c3=O)[C@H](O)[C@@H](O)[C@@H]2O)[C@H](O)[C@H](O)[C@H]1O | 92.2 | 87.1 | 86 | 86.9 |
| > 100 | Oc1cc(O)c2c(c1)O[C@]1(c3ccc(O)c(O)c3)Oc3cc(O)c4c(c3[C@H]2[C@@H]1O)O[C@@]1(c2ccc(O)c(O)c2)Oc2cc(O)c3c(c2[C@@H]4[C@H]1O)O[C@@H](c1ccc(O)c(O)c1)[C@H](O)C3 | 94.4 | 97.3 | 104 | 112 |
| 9.08 | O=C(O)/C=C/c1ccc(O[C@@H]2O[C@H](CO)[C@@H](O)[C@H](O)[C@H]2O)cc1 | 101 | 98.4 | 101 | 94.7 |
| > 100 | O=c1c(O[C@@H]2O[C@H](CO)[C@@H](O)[C@H](O)[C@H]2O[C@@H]2O[C@H](CO)[C@@H](O)[C@H](O)[C@H]2O)c(-c2ccc(O)c(O)c2)oc2cc(O)cc(O)c12 | 84.5 | 87.7 | 96.5 | 108 |
| > 100 | C[C@@H]1O[C@@H](Oc2c(-c3cc(O)c(O)c(O)c3)oc3cc(O)cc(O)c3c2=O)[C@H](O)[C@H](O)[C@H]1O | 97.9 | 99.5 | 99.3 | 107 |
| 47.4 | Oc1cc(O)c2c(c1)O[C@H](c1ccc(O)c(O)c1)[C@H](O)C2 [(-)-EPICATECHIN] | 84.4 | 87.6 | 88 | 93.2 |
| 9.52 | Oc1cc(O)c2c(c1)O[C@H](c1ccc(O)c(O)c1)[C@@H](O)C2 [CIANIDANOL] | 81.5 | 88.3 | 102 | 117 |
| 13.4 | O=c1c(O[C@@H]2O[C@H](CO)[C@@H](O)[C@H](O)[C@H]2O)c(-c2ccc(O)c(O)c2)oc2cc(O)cc(O)c12 [ISOQUERCETIN] | 101 | 98.4 | 87.7 | 85.2 |
| 37 | CN(C)c1ccc(O)c2c1C[C@H]1C[C@H]3[C@H](N(C)C)C(O)=C(C(N)=O)C(=O)[C@@]3(O)C(O)=C1C2=O [MINOCYCLINE] | – | – | – | – |
| > 100 | O=c1c(O)c(-c2cc(O)c(O)c(O)c2)oc2cc(O)cc(O)c12 [MYRICETIN] | 97.7 | 98.4 | 109 | 116 |
| > 100 | COc1cc(-c2oc3cc(O)cc(O)c3c(=O)c2O[C@@H]2O[C@H](CO[C@@H]3O[C@@H](C)[C@H](O)[C@@H](O)[C@H]3O)[C@@H](O)[C@H](O)[C@H]2O)ccc1O [NARCISSIN] | 95.1 | 89.5 | 88.7 | 88.8 |
| 88 | C[C@@H]1O[C@@H](OC[C@H]2O[C@@H](Oc3c(-c4ccc(O)cc4)oc4cc(O)cc(O)c4c3=O)[C@H](O)[C@@H](O)[C@@H]2O)[C@H](O)[C@H](O)[C@H]1O [NICOTIFLOROSIDE] | 98.7 | 110 | 92.1 | 113 |
| – | C[C@@H]1O[C@@H](OC[C@H]2O[C@@H](Oc3c(-c4ccc(O)c(O)c4)oc4cc(O)cc(O)c4c3=O)[C@H](O)[C@@H](O)[C@@H]2O)[C@H](O)[C@H](O)[C@H]1O [RUTIN] | 97.2 | 94.6 | 91 | 95 |

| Compound | IC50 [1] [µM] | viability at 24 h, 1 µM [2] [%] | viability at 24 h, 10 µM [3] [%] | viability at 24 h, 30 µM [4] [%] | viability at 24 h, 100 µM [5] [%] |
| --- | --- | --- | --- | --- | --- |
| COc1cc([C@@H]2OC[C@H]3[C@@H]2CO[C@H]3c2cc(OC)c(O[C@@H]3O[C@H](CO)[C@@H](O)[C@H](O)[C@H]3O)c(OC)c2)cc(OC)c1O[C@@H]1O[C@H](CO)[C@@H](O)[C@H](O)[C@H]1O | > 100 | 100 | 97.5 | 100 | 94.9 |
| Oc1cc(O)c2c(c1)O[C@H](c1cc(O)c(O)c(O)c1)[C@H](O)C2 [EPIGALLOCATECHIN] | > 100 | 95.3 | 96.4 | 100 | 94.6 |
| Oc1cc(O)c2c(c1)O[C@H](c1cc(O)c(O)c(O)c1)[C@@H](O)C2 [GALLOCATECHIN] | > 100 | 89.5 | 94.2 | 89.5 | 82.6 |
| O=c1c(O)c(-c2ccc(O)c(O)c2)oc2cc(O)cc(O)c12 [QUERCETIN] | 39.5 | 87.5 | 90.7 | 96.9 | 99.7 |
| C[C@@H]1O[C@@H](Oc2c(-c3ccc(O)c(O)c3)oc3cc(O)cc(O)c3c2=O)[C@H](O)[C@H](O)[C@H]1O [QUERCITRIN] | > 100 | 92 | 91 | 99.3 | 96.5 |
